The values that follow come from patent US5104891A, “Cycloheptimidazolone compounds as angiotensin II antagonists for control of hypertension” (G. D. Searle & Co., priority 1989, dated 1992).

One test has as its system angiotensin II. As to conditions: literature; cited from earlier work.
The target of test [1] is T1, angiotensin II (AII) contraction of rabbit aortic rings (Oryctolagus cuniculus, UniProt P34976).
T1 construct: The thoracic aorta was removed, cleaned of adherent fat and connective tissue and then cut into 3-mm ring segments; from tissue; host or cells: rabbit thoracic aorta rings, endothelium removed
T1 sequence (P34976 1-359): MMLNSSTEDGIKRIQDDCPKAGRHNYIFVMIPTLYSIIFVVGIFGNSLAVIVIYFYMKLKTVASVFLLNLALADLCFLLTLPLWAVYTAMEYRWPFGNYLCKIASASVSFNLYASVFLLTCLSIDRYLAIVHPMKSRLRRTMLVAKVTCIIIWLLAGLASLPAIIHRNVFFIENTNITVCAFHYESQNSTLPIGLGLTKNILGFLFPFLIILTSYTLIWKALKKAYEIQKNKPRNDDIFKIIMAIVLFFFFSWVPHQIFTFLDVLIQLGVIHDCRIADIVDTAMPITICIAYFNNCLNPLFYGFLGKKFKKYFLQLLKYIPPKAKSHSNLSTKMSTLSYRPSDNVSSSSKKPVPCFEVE
The test can be described thus: In vitro myotropic screening assay for AII antagonists in rabbit aortic rings. The format is cell-based. As to conditions: pA2 determined according to Schild. The protocol: The compounds of the invention were tested for agonist and antagonist activity in rabbit aortic rings. Male New Zealand white rabbits (2-2.5 kg) were sacrificed using an overdose of pentobarbital and exsanguinated via the carotid arteries. The thoracic aorta was removed, cleaned of adherent fat and connective tissue and then cut into 3-mm ring segments. The endothelium was removed from the rings by gently sliding a rolled-up piece of filter paper into the vessel lumen. The rings were then mounted in a water-jacketed tissue bath, maintained at 37° C., between a moveable and a fixed stainless steel wire, with the moveable end attached to an FT03 Grass transducer coupled to a Model 7D Grass Polygraph for recording isometric force responses. […] The preparations were equilibrated for one hour before approximately one gram of passive tension was placed on the rings. For the agonist assay, the rings were exposed to increasing concentrations of the test compound, at 30 minute intervals, during which time the tissue was washed three times with 20 ml of fresh Krebs solution. For the measurement of antagonistic activity, paired rings from the same rabbits were used; one was exposed to increasing concentrations of AII (at 30 minute intervals), and a second ring was exposed to increasing concentrations of AII in the presence of the test compound which was added five minutes prior to the addition of AII. The concentration response curves for AII in the presence of the antagonist were evaluated in terms of the percent of the maximal contraction of the control ring exposed only to AII. pD2 values for AII were calculated from the AII concentration response curves while pA2s were determined according to Schild.

The test system of test [2] is AII pressor response. The test can be described thus: In vivo AII pressor assay, intraduodenal administration. Set-up: species or system rat (male Sprague Dawley). As to conditions: rat, @ 100 mg. The protocol: (§1) Male Sprague Dawley rats weighing […] were anesthetized with Inactin (100 mg/kg), a catheter was inserted into the trachea and the carotid artery and the jugular vein were cannulated. Arterial pressure was measured from the carotid artery cannula and continuously recorded (Gould, Cleveland, OH). The jugular vein cannula was used for injections of angiotensin II (AII), mecamylamine, atropine and the test compound. The animal was allowed to equilibrate for 30 minutes. Mecamylamine (3 mg/kg, 0.3 mg/kg) and atropine (400 μg/kg, 0.3 ml/kg) were then given iv to produce ganglion blockage. These compounds were administered every 90 minutes throughout the screening procedure. Angiotensin II was given in bolus doses ([…] in saline with 0.5% bovine serum albumin, 0.1 ml/kg) every 10 minutes consecutively three times or until the increase in arterial pressure produced was within 3 mm Hg for two consecutive injections. […] AII injections were then given 1, 5, 10, 20, 30, 45, 60, 75, 90, and 120 minutes after administration of the test compound and the response of arterial pressure monitored. […]
Compounds were tested for absorption from the gastrointestinal tract following intraduodenal administration. […] The response to AII was tested at the same time points following administration of the test compound except that the 1 minute reading was eliminated. […]

Test [3] relates to AII pressor response. The test can be described thus: In vivo pressor screening assay for AII antagonists, intravenous administration. Also on record: species or system rat (male Sprague Dawley). As to conditions: rat. Here is the method: as §1, with “injections. The last two AII injections are averaged and are referred to as the control response to AII.” for “injections.”
Test [4] concerns the target angiotensin II receptor (rat uterine membranes). In words: Angiotensin II binding assay (125I-angiotensin II, rat uterine membranes). The protocol: Other chemicals were obtained from Sigma Chemical Co.
Rat uterine membranes were prepared from fresh tissue. All procedures were carried out at 4° C. Uteri were stripped of fat and homogenized using a Polytron for 25 sec in 20 volumes of ice-cold Dulbecco's phosphate-buffered saline pH 7.5 (Gibso Labs) containing 5 mM EDTA. The homogenate was centrifuged at 1500× g for 20 min., and the supernatant was recentrifuged at 100,000× g for 60 min. The pellet was resuspended in buffer consisting of 2 mM EDTA and 50 mM Tris-HCl, pH 7.5 to a final protein concentration of 4 mg/ml.
The reaction was initiated by the addition of 50 μg of membrane protein and the mixture was incubated at 25° C. for 30 min. The incubation was terminated with ice-cold 50 mM Tris-HCl; pH 7.5 and the mixture was filtered to separate membrane-bound labelled peptide from the free ligand. The incubation tube and filter were washed with ice-cold buffer. Filters were assayed for radioactivity in a Micromedic gamma counter. Nonspecific binding was defined as binding in the presence of 10 μM of unlabelled AII. Specific binding was calculated as total binding minus nonspecific binding. Binding data was analyzed by a nonlinear least-squares curve fitting program.

Setting [5] is: IC50, 125I-AII, rat uterine membranes, 25° C., 30 min.

For the compound `CCCCc1nc(Cl)c(CC(=O)O)n1Cc1ccccc1[N+](=O)[O-]` [2-butyl-4-chloro-1-(2-nitrobenzyl)imiadzole-5-acetic acid], in the test with angiotensin II, the “angiotensin II antagonist activity” value was “specific competitive angiotensin II antagonist activity”.
`CCCCc1nc(Cl)c(CC(=O)O)n1Cc1ccccc1Cl` [2-n-butyl-4-chloro-1-(2-chlorobenzyl) imidozole-s-acetic acid]: the “angiotensin II antagonist activity” value in the test on angiotensin II is on record as “specific competitive angiotensin II antagonist activity”.
A word on the Kb: it is the affinity of an antagonist, worked out from how it opposes an agonist. As a reminder, the IC50 is the point on the concentration scale where inhibition reaches its midpoint. A low value points to inhibition by little substance. The compound `CCCCc1nc2cc(C)c(=O)c(C)cc2n1Cc1ccc(-c2ccccc2C(=O)O)cc1` [Example 1, 4'-[[5,7-dimethyl-2-butyl-6(1H)-cycloheptimidazolon-1-yl]methyl]-[1,1'-biphenyl]-2-carboxylic acid] had a Kb in test [1] of 1 µM. Besides, the “Antagonism of the AII pressor response, maximal inhibition, ID” value with AII pressor response [2] turned out to be 72%. The “Antagonism of the AII pressor response, maximal inhibition, I.V.” value in the test with AII pressor response [3] (@ 30 mg) came out at 72%. The IC50 in test [4] (setting [5]) was found to be 0.8 µM; in test [4] (meaning not explained), 0.25 µM.
Take `CCCCc1nc2cc(C(=O)O)c(=O)c(C(=O)O)cc2n1Cc1ccc(-c2ccccc2C(=O)O)cc1` [Example 2, 4'-[[5,7-dicarboxy-2-butyl-6(1H)-cycloheptimidazolon-1-yl]methyl]-[1,1'-biphenyl]-2-carboxylic acid]: the Kb in test [1] was 0.251 µM. Also, the “Antagonism of the AII pressor response, maximal inhibition, I.V.” value in the test on AII pressor response [3] (@ 10 mg) is 100%. Further, the IC50 in test [4] (setting [5]) is 0.5 µM; in test [4] (meaning not explained), 0.14 µM.
